Measurements from patent US4024277A, “Phosphoro-aminosulfenyl derivatives of benzofuran carbamates” (priority 1975, dated 1977).

Experiments:
southern armyworm [1] = experiment: Initial insecticidal activity, southern armyworm; assay type: in vivo, Spodoptera eridania (Cramer); settings: Spodoptera eridania, 48-hour exposure, read-out: % Kill, Southern Armyworm
From the text: (§1) a. Initial Insecticidal Activity
(§2) In this test, a candidate insecticide, in solution, is applied to either infested or uninfested plants or containers by spraying or dipping. (The preferred test procedure varies with insect species. The dipping method is better than the spraying method, and vice versa, for certain species of insects. Also some species are better adapted to the test by infesting after the chemical treatment rather than before.) Once the tests have been established, a 48-hour exposure period is observed before reading the tests. Insect species included in these tests are Mexican bean beetle (Epilachna varivestis Mulsant), pea aphid [Acyrthosiphon pisum (Harris)], southern armyworm [Spodoptera eridania (Cramer)], twospotted spider mite (Tetranychus urticae Koch), large milkweed bug [Oncopeltus fasciatus (Dallas)], plum curculio [Conotrachelus nenuphar (Herbst)], confused flour beetle (Tribolium confusum Jacquelin duVal) and granary weevil [Sitophilus granarius (Linnaeus)]. Test results are set forth in Table I. A control sample, comprising the solution without the candidate insecticide, is also included.

pea aphid [2] = experiment: Initial insecticidal activity, pea aphid; assay type: in vivo, Acyrthosiphon pisum (Harris); settings: Acyrthosiphon pisum, 48-hour exposure, read-out: % Kill, Pea Aphid
From the text: as §1, §2

plum curculio [3] = experiment: Seven-day residual insecticidal activity, plum curculio; assay type: in vivo, Conotrachelus nenuphar (Herbst); settings: Conotrachelus nenuphar, 48-hour exposure, read-out: % Kill, Plum Curculio
From the text: (§3) b. Seven-Day Residual Insecticidal Activity
(§4) In this test, a candidate insecticide, in solution, is applied to uninfested plants or containers by dipping or spraying. A seven-day holding period is necessary before infestation. A 48-hour exposure period is observed before evaluation of the tests. The insect species used in this type of test are the same as those listed under initial activity.

confused flour beetle [4] = experiment: Seven-day residual insecticidal activity, confused flour beetle; assay type: in vivo, Tribolium confusum Jacquelin duVal; settings: Tribolium confusum, 48-hour exposure, read-out: % Kill, Confused Flour Beetle
From the text: as §3, §4

Mexican bean beetle [5] = experiment: Initial insecticidal activity, Mexican bean beetle; assay type: in vivo, Epilachna varivestis Mulsant; settings: Epilachna varivestis, 48-hour exposure, read-out: % Kill, Mexican Bean Beetle
From the text: as §1, §2

pea aphid [6] = experiment: Systemic insecticidal activity (soil/water), pea aphid; assay type: in vivo, Acyrthosiphon pisum (Harris); settings: Acyrthosiphon pisum, 48-hour exposure, read-out: % Kill, Pea Aphid
Method: (§5) c. Systemic Insecticidal Acitivity (Soil/Water)
(§6) In this test, a candidate insecticide, in solution, is added to the soil of either uninfested pinto bean seedlings (Phaseolus vulgaris) or uninfested broad bean seedlings (Vicia faba var. Windsor). The plant species used depend on the insect species in the test. Usually, a 72-hour translocation period before infestation is required, followed by a 48-hour exposure period, before evaluation of the tests. The insect species used in the systemic tests are Mexican bean beetle, southern armyworm, pea aphid, and twospotted spider mite.

plum curculio [7] = experiment: Initial insecticidal activity, plum curculio; assay type: in vivo, Conotrachelus nenuphar (Herbst); settings: Conotrachelus nenuphar, 48-hour exposure, read-out: % Kill, Plum Curculio
From the text: as §1, §2

southern armyworm [8] = experiment: Seven-day residual insecticidal activity, southern armyworm; assay type: in vivo, Spodoptera eridania (Cramer); settings: Spodoptera eridania, 48-hour exposure, read-out: % Kill, Southern Armyworm
From the text: as §3, §4

confused flour beetle [9] = experiment: Initial insecticidal activity, confused flour beetle; assay type: in vivo, Tribolium confusum Jacquelin duVal; settings: Tribolium confusum, 48-hour exposure, read-out: % Kill, Confused Flour Beetle
From the text: as §1, §2

twospotted spider mite [10] = experiment: Systemic insecticidal activity (soil/water), twospotted spider mite; assay type: in vivo, Tetranychus urticae Koch; settings: Tetranychus urticae, 48-hour exposure, read-out: % Kill, Twospotted Spider Mite
Method: as §5, §6

Mexican bean beetle [11] = experiment: Systemic insecticidal activity (soil/water), Mexican bean beetle; assay type: in vivo, Epilachna varivestis Mulsant; settings: Epilachna varivestis, 48-hour exposure, read-out: % Kill, Mexican Bean Beetle
Method: as §5, §6

twospotted spider mite [12] = experiment: Initial insecticidal activity, twospotted spider mite; assay type: in vivo, Tetranychus urticae Koch; settings: Tetranychus urticae, 48-hour exposure, read-out: % Kill, Twospotted Spider Mite
From the text: as §1, §2

large milkweed bug [13] = experiment: Seven-day residual insecticidal activity, milkweed bug; assay type: in vivo, Oncopeltus fasciatus (Dallas); settings: Oncopeltus fasciatus, 48-hour exposure, read-out: % Kill, Milkweed Bug
From the text: as §3, §4

pea aphid [14] = experiment: Seven-day residual insecticidal activity, pea aphid; assay type: in vivo, Acyrthosiphon pisum (Harris); settings: Acyrthosiphon pisum, 48-hour exposure, read-out: % Kill, Pea Aphid
From the text: as §3, §4

twospotted spider mite [15] = experiment: Seven-day residual insecticidal activity, twospotted spider mite; assay type: in vivo, Tetranychus urticae Koch; settings: Tetranychus urticae, 48-hour exposure, read-out: % Kill, Twospotted Spider Mite
From the text: as §3, §4

Mexican bean beetle [16] = experiment: Seven-day residual insecticidal activity, Mexican bean beetle; assay type: in vivo, Epilachna varivestis Mulsant; settings: Epilachna varivestis, 48-hour exposure, read-out: % Kill, Mexican Bean Beetle
From the text: as §3, §4

southern armyworm [17] = experiment: Systemic insecticidal activity (soil/water), southern armyworm; assay type: in vivo, Spodoptera eridania (Cramer); settings: Spodoptera eridania, 48-hour exposure, read-out: % Kill, Southern Armyworm
Method: as §5, §6

twospotted spider mite [18] = experiment: Ovicidal activity against the twospotted spider mite; assay type: in vivo, Tetranychus urticae Koch; settings: Tetranychus urticae, eggs, 7 to 10 days, read-out: % Kill (ovicidal)
Method: d. Ovicidal Activity Against the Twospotted Spider Mite
In this test, Pinto bean seedlings are infested with female twospotted spider mites; about 3-4 hours are allowed for egg deposition. Plants are then dipped in TEPP (tetraethylpyrophosphate-commercial emulsifiable concentrate (EC)) solution containing 936 ppm of active ingredient. TEPP kills motile forms on the leaf and promptly degrades without effecting the egg stage. Two to three hours after TEPP treatment the plants are again dipped -- this time into a candidate insecticide solution. The test plants are maintained for 7 to 10 days. Termination of exposure is determined by the time required to attain complete hatch in the untreated check.

large milkweed bug [19] = experiment: Initial insecticidal activity, milkweed bug; assay type: in vivo, Oncopeltus fasciatus (Dallas); settings: Oncopeltus fasciatus, 48-hour exposure, read-out: % Kill, Milkweed Bug
From the text: as §1, §2

[20] = tested on: beetles, true bugs, aphids and acarids; settings: U.S. Pat. No. 3,474,171; cited from earlier work
[21] = Mammalian toxicity, 14-day LD50 in rats; settings: rat, in vivo, Wistar derived albino rats, method of Miller and Tainter
From the text: The compounds of this invention are characterized by advantageous mammalian toxicity values when compared with values for related compounds. This is shown by comparative values obtained with Wistar derived albino rats in 14-day tests. The animals were fed, housed and watered in accordance with standard laboratory procedures. The 14-day LD50 determination was estimated in accord with the method of Miller and Tainter (Experimental Biology and Medicine, 57, pp. 261-264, 1944).

## CCOP(=O)(OCC)N(CCc1ccccc1)SN(C)C(=O)Oc1cccc2c1OC(C)(C)C2 [9(c), 2,3-Dihydro-2,2-dimethyl-7-benzofuranyl [(N-diethoxyphosphinyl)(N-2-phenylethyl)aminosulfenyl][methyl-carbamate]]
Southern armyworm [1]
  mortality at 39 ppm: 0%
  mortality at 156 ppm: 8%
  mortality at 1250 ppm: 79%
Pea aphid [2]
  mortality at 39 ppm: 0%
  mortality at 156 ppm: 0%
  mortality at 1250 ppm: 100%
Plum curculio [3]
  mortality at 39 ppm: 0%
  mortality at 156 ppm: 0%
  mortality at 1250 ppm: 0%
Confused flour beetle [4]
  mortality at 39 ppm: 0%
  mortality at 156 ppm: 0%
  mortality at 1250 ppm: 12%
Mexican bean beetle [5]
  mortality at 39 ppm: 60%
  mortality at 156 ppm: 100%
  mortality at 1250 ppm: 100%
Pea aphid [6]; 5 ppm
  mortality at 5 ppm: 0%
Pea aphid [6]
  mortality at 10 ppm: 0%
  mortality at 39 ppm: 0%
  mortality at 156 ppm: 100%
Plum curculio [7]
  mortality at 39 ppm: 0%
  mortality at 156 ppm: 5%
  mortality at 1250 ppm: 94%
Southern armyworm [8]
  mortality at 156 ppm: 0%
  mortality at 1250 ppm: 25%
Confused flour beetle [9]
  mortality at 39 ppm: 0%
  mortality at 156 ppm: 3%
  mortality at 1250 ppm: 8%
Twospotted spider mite [10]
  mortality at 39 ppm: 0%
  mortality at 156 ppm: 0%
Twospotted spider mite [10]; 312 ppm
  mortality at 312 ppm: 2%
Mexican bean beetle [11]; 5 ppm
  mortality at 5 ppm: 0%
Mexican bean beetle [11]
  mortality at 10 ppm: 0%
  mortality at 39 ppm: 0%
  mortality at 156 ppm: 65%
Twospotted spider mite [12]
  mortality at 39 ppm: 3%
  mortality at 156 ppm: 6%
  mortality at 1250 ppm: 98%
Large milkweed bug [13]
  mortality at 39 ppm: 0%
  mortality at 156 ppm: 85%
  mortality at 1250 ppm: 100%
Pea aphid [14]
  mortality at 39 ppm: 6%
  mortality at 156 ppm: 0%
  mortality at 1250 ppm: 0%
Twospotted spider mite [15]
  mortality at 156 ppm: 0%
  mortality at 1250 ppm: 0%
Mexican bean beetle [16]
  mortality at 39 ppm: 8%
  mortality at 156 ppm: 100%
  mortality at 1250 ppm: 100%
Southern armyworm [17]
  mortality at 39 ppm: 0%
  mortality at 156 ppm: 21%
Southern armyworm [17]; 312 ppm
  mortality at 312 ppm: 80%
Twospotted spider mite [18]
  mortality at 156 ppm: 0%
  mortality at 1250 ppm: 94%
Large milkweed bug [19]
  mortality at 39 ppm: 6%
  mortality at 156 ppm: 100%
  mortality at 1250 ppm: 100%

## CNC(=O)Oc1cccc2c1OC(C)(C)C2 [carbofuran, 2,3-dihydro-2,2-dimethyl-7-benzofuranyl methyl-carbamate, reference compound]
[20]
  control of beetles, true bugs, aphids and acarids: effective in control of beetles, true bugs, aphids and acarids
[21]
  LD50 at 336 h: 12.2 mg/kg

## CCCN(SN(C)C(=O)Oc1cccc2c1OC(C)(C)C2)P(=O)(OCC)OCC [4(c), 2,3-dihydro-2,2-dimethyl-7-benzofuranyl [(N-diethoxyphosphinyl) (N-n-propyl)aminosulfenyl][methyl]carbamate]
Southern armyworm [1]
  mortality at 39 ppm: 0%
  mortality at 156 ppm: 29%
  mortality at 1250 ppm: 100%
Pea aphid [2]
  mortality at 39 ppm: 33%
  mortality at 156 ppm: 100%
  mortality at 1250 ppm: 100%
Plum curculio [3]
  mortality at 39 ppm: 0%
  mortality at 156 ppm: 0%
  mortality at 1250 ppm: 19%
Confused flour beetle [4]
  mortality at 39 ppm: 0%
  mortality at 156 ppm: 0%
  mortality at 1250 ppm: 0%
Mexican bean beetle [5]
  mortality at 39 ppm: 86%
  mortality at 156 ppm: 100%
  mortality at 1250 ppm: 95%
Pea aphid [6]
  mortality at 10 ppm: 0%
  mortality at 39 ppm: 93%
  mortality at 156 ppm: 100%
Plum curculio [7]
  mortality at 39 ppm: 0%
  mortality at 156 ppm: 50%
  mortality at 1250 ppm: 10%
Southern armyworm [8]; 39 ppm
  mortality at 39 ppm: 0%
Southern armyworm [8]
  mortality at 156 ppm: 5%
  mortality at 1250 ppm: 60%
Confused flour beetle [9]
  mortality at 39 ppm: 0%
  mortality at 156 ppm: 8%
  mortality at 1250 ppm: 65%
Twospotted spider mite [10]; 10 ppm
  mortality at 10 ppm: 0%
Twospotted spider mite [10]
  mortality at 39 ppm: 0%
  mortality at 156 ppm: 7%
Mexican bean beetle [11]
  mortality at 10 ppm: 7%
  mortality at 39 ppm: 65%
  mortality at 156 ppm: 94%
Twospotted spider mite [12]
  mortality at 39 ppm: 8%
  mortality at 156 ppm: 37%
  mortality at 1250 ppm: 100%
Large milkweed bug [13]
  mortality at 39 ppm: 75%
  mortality at 156 ppm: 95%
  mortality at 1250 ppm: 100%
Pea aphid [14]
  mortality at 39 ppm: 0%
  mortality at 156 ppm: 0%
  mortality at 1250 ppm: 100%
Twospotted spider mite [15]; 39 ppm
  mortality at 39 ppm: 0%
Twospotted spider mite [15]
  mortality at 156 ppm: 0%
  mortality at 1250 ppm: 2%
Mexican bean beetle [16]
  mortality at 39 ppm: 27%
  mortality at 156 ppm: 62%
  mortality at 1250 ppm: 100%
Southern armyworm [17]; 10 ppm
  mortality at 10 ppm: 0%
Southern armyworm [17]
  mortality at 39 ppm: 0%
  mortality at 156 ppm: 42%
Twospotted spider mite [18]
  mortality at 156 ppm: 0%
  mortality at 1250 ppm: 66%
Large milkweed bug [19]
  mortality at 39 ppm: 90%
  mortality at 156 ppm: 100%
  mortality at 1250 ppm: 100%
